According to ChEMBL document CHEMBL4364276, “Discovery of 4-phenyl-2H-benzo[b][1,4]oxazin-3(4H)-one derivatives as potent and orally active PI3K/mTOR dual inhibitors” (Eur J Med Chem, 2019):

What was measured:
[1] = biological target: Serine/threonine-protein kinase pim-2 (Homo sapiens) (UniProt Q9P1W9); experiment: Inhibition of human PIM2 at 100 nM using RSRHSSYPAGT as substrate by [gamma-33P]-ATP assay
[2] = biological target: Tyrosine-protein kinase Lyn (Homo sapiens) (UniProt P07948); experiment: Inhibition of human LYN-B at 100 nM using poly[Glu:Tyr] (4:1) as substrate by [gamma-33P]-ATP assay
[3] = biological target: Discoidin domain-containing receptor 2 (Homo sapiens) (UniProt Q16832); experiment: Inhibition of human DDR2 at 100 nM using KKSRGDYMTMQIG as substrate by [gamma-33P]-ATP assay
[4] = biological target: Dual specificity protein kinase CLK3 (Homo sapiens) (UniProt P49761); experiment: Inhibition of human CLK3 at 100 nM using MBP as substrate by [gamma-33P]-ATP assay
[5] = biological target: Mitogen-activated protein kinase kinase kinase kinase 5 (Homo sapiens) (UniProt Q9Y4K4); experiment: Inhibition of human KHS at 100 nM using MBP as substrate by [gamma-33P]-ATP assay
[6] = biological target: SNF-related serine/threonine-protein kinase (Homo sapiens) (UniProt Q9NRH2); experiment: Inhibition of human SNRK at 100 nM using MBP as substrate by [gamma-33P]-ATP assay
[7] = AUC (0 to infinity) in Sprague-Dawley rat at 10 mg/kg, po measured upto 24 hrs by LC-MS/MS analysis; assay type: ADME, organism-based; design: dose 10 mg/kg, time infinity, route oral; settings: in vivo
[8] = biological target: Homeodomain-interacting protein kinase 4 (Homo sapiens) (UniProt Q8NE63); experiment: Inhibition of human HIPK4 at 100 nM using MBP as substrate by [gamma-33P]-ATP assay
[9] = biological target: Tyrosine-protein kinase ZAP-70 (Homo sapiens) (UniProt P43403); experiment: Inhibition of human ZAP70 at 100 nM using poly[Glu:Tyr] (4:1) as substrate by [gamma-33P]-ATP assay
[10] = biological target: Cyclin-dependent kinase 5/CDK5 activator 1 (Homo sapiens) (UniProt Q00535+Q15078); experiment: Inhibition of human CDK5/p35 at 100 nM using histone H1 as substrate by [gamma-33P]-ATP assay; assay type: protein-complex assay
[11] = biological target: Macrophage-stimulating protein receptor (Homo sapiens) (UniProt Q04912); experiment: Inhibition of human RON at 100 nM using KKSRGDYMTMQIG as substrate by [gamma-33P]-ATP assay
HeLa = experiment: Antitumor activity against human HeLa cells xenografted in ig dosed BALB/c nude mouse assessed as tumor growth inhibition administered for 30 days measured every 3 days during compound dosing relative to control; assay type: functional, organism-based
[12] = biological target: Tyrosine-protein kinase TXK (Homo sapiens) (UniProt P42681); experiment: Inhibition of human TXK at 100 nM using EAIYAAPFAKKK as substrate by [gamma-33P]-ATP assay
[13] = biological target: PI3-kinase p110-delta/p85-alpha (Homo sapiens, UniProt O00329); experiment: Inhibition of recombinant human full length N-terminal GST-tagged PI3Kdelta (1 to 1044 residues)/PIK3R1 (1 to 724 residues) expressed in baculovirus expression system using PIP2 as substrate incubated for 2 hrs by ADP-Glo assay
[14] = biological target: Ephrin type-B receptor 4 (Homo sapiens) (UniProt P54760); experiment: Inhibition of human EPHB4 at 100 nM using poly[Glu:Tyr] (4:1) as substrate by [gamma-33P]-ATP assay
[15] = biological target: Mitogen-activated protein kinase kinase kinase 6 (Homo sapiens) (UniProt O95382); experiment: Inhibition of human MEKK6 at 100 nM using MBP as substrate by [gamma-33P]-ATP assay
[16] = biological target: Serine/threonine-protein kinase ICK (Homo sapiens) (UniProt Q9UPZ9); experiment: Inhibition of human LCK2 at 100 nM using MBP as substrate by [gamma-33P]-ATP assay
[17] = biological target: Casein kinase I isoform alpha-like (Homo sapiens) (UniProt Q8N752); experiment: Inhibition of human CK1a1L at 100 nM using KRRRAL[pS]VASLPGL as substrate by [gamma-33P]-ATP assay
[18] = biological target: Ephrin type-A receptor 6 (Homo sapiens) (UniProt Q9UF33); experiment: Inhibition of human EPHA6 at 100 nM using poly[Glu:Tyr] (4:1) as substrate by [gamma-33P]-ATP assay
[19] = biological target: Phosphorylase b kinase gamma catalytic chain, skeletal muscle/heart isoform (Homo sapiens) (UniProt Q16816); experiment: Inhibition of human PHKgamma1 at 100 nM using MBP as substrate by [gamma-33P]-ATP assay
[20] = biological target: Serine/threonine-protein kinase OSR1 (Homo sapiens) (UniProt O95747); experiment: Inhibition of human OSR1 at 100 nM using RRHYYYDTHTNTYYLRTFGHNTRR as substrate by [gamma-33P]-ATP assay
[21] = biological target: Serine/threonine-protein kinase ULK3 (Homo sapiens) (UniProt Q6PHR2); experiment: Inhibition of human ULK3 at 100 nM using MBP as substrate by [gamma-33P]-ATP assay
[22] = biological target: Serine/threonine-protein kinase DCLK2 (Homo sapiens) (UniProt Q8N568); experiment: Inhibition of human DCAMKL2 at 100 nM using KKLNRTLSFAEPG as substrate by [gamma-33P]-ATP assay
[23] = biological target: [Pyruvate dehydrogenase (acetyl-transferring)] kinase isozyme 4, mitochondrial (Homo sapiens) (UniProt Q16654); experiment: Inhibition of human PDK4 at 100 nM using MBP as substrate by [gamma-33P]-ATP assay
[24] = biological target: Tyrosine-protein kinase FRK (Homo sapiens) (UniProt P42685); experiment: Inhibition of human FRK at 100 nM using poly[Glu:Tyr] (4:1) as substrate by [gamma-33P]-ATP assay
[25] = biological target: Platelet-derived growth factor receptor beta (Homo sapiens) (UniProt P09619); experiment: Inhibition of human PDGFRbeta at 100 nM using poly[Glu:Tyr] (4:1) as substrate by [gamma-33P]-ATP assay
[26] = biological target: Serine/threonine-protein kinase tousled-like 2 (Homo sapiens) (UniProt Q86UE8); experiment: Inhibition of human TLK2 at 100 nM using casein as substrate by [gamma-33P]-ATP assay
[27] = biological target: Misshapen-like kinase 1 (Homo sapiens) (UniProt Q8N4C8); experiment: Inhibition of human MINK1 at 100 nM using MBP as substrate by [gamma-33P]-ATP assay
[28] = Cmax in Sprague-Dawley rat at 10 mg/kg, po measured upto 24 hrs by LC-MS/MS analysis; assay type: ADME, organism-based; design: dose 10 mg/kg, route oral; settings: in vivo
[29] = biological target: Serine/threonine-protein kinase Chk2 (Homo sapiens) (UniProt O96017); experiment: Inhibition of human CHK2 at 100 nM using KKKVSRSGLYRSPSMPENLNRPR as substrate by [gamma-33P]-ATP assay
[30] = biological target: Casein kinase I isoform gamma-2 (Homo sapiens) (UniProt P78368); experiment: Inhibition of human CK1gamma2 at 100 nM using KRRRAL[pS]VASLPGL as substrate by [gamma-33P]-ATP assay
Casein kinase I isoform gamma-2 (Homo sapiens), sequence (P78368 whole entry, looked up, canonical isoform): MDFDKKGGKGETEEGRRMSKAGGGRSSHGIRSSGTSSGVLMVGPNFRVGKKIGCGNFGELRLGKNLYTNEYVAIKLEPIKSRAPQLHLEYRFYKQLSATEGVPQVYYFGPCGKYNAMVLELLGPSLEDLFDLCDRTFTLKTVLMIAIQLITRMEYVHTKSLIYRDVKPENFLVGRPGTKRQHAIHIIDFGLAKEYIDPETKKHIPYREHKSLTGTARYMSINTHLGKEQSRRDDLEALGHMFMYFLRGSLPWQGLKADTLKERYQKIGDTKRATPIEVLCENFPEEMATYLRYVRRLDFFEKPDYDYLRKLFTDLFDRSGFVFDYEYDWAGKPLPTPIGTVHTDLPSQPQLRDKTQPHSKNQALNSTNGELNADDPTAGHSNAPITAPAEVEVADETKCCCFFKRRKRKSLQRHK

PI3-kinase p110-delta/p85-alpha, sequence (P27986 whole entry, the tested form may be a part): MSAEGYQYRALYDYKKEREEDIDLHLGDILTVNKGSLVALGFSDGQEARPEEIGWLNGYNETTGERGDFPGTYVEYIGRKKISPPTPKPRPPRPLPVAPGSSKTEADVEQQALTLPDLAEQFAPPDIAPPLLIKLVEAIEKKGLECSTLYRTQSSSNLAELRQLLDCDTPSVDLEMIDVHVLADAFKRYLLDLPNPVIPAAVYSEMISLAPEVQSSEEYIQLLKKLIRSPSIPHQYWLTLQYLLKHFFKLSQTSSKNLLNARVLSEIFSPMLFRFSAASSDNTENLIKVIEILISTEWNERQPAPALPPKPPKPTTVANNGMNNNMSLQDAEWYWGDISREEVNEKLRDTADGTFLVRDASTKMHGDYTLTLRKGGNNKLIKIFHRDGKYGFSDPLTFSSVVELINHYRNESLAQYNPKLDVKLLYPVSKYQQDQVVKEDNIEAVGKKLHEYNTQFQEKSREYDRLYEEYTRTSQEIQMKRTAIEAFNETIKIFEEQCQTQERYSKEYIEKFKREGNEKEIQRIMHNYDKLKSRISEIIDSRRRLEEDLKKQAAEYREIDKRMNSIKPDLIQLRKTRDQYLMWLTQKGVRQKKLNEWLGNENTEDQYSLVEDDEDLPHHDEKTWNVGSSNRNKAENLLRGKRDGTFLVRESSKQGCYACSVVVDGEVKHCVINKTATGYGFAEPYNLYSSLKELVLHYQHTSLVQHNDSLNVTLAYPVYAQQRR
PI3-kinase p110-delta/p85-alpha, sequence (O00329 whole entry, the tested form may be a part): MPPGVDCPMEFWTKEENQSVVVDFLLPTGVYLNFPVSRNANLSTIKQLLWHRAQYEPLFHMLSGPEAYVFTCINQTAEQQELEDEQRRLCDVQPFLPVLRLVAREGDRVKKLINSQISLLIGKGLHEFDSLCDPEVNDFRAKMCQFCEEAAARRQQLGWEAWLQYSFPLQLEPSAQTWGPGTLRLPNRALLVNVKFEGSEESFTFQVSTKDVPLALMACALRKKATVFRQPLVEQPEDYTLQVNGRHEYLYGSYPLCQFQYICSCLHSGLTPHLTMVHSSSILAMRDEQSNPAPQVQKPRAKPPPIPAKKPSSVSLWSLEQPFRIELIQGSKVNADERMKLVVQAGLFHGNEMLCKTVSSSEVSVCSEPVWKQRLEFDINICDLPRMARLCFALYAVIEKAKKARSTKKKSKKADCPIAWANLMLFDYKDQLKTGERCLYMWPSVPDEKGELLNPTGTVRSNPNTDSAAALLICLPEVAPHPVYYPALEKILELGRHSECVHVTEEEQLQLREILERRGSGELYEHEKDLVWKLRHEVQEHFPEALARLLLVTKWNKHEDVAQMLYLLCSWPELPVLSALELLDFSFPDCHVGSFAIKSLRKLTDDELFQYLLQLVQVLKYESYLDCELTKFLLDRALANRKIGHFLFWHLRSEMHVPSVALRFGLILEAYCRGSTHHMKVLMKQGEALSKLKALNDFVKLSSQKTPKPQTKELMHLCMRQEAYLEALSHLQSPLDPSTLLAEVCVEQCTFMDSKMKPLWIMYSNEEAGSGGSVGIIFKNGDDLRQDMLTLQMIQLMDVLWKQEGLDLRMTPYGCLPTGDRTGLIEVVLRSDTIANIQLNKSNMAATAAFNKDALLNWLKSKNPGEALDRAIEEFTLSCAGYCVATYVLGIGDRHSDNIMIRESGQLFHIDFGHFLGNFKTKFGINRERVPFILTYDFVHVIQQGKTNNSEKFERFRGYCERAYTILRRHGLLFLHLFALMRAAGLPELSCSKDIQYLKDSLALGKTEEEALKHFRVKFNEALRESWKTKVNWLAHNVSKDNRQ
Serine/threonine-protein kinase tousled-like 2 (Homo sapiens), sequence (Q86UE8 whole entry, looked up): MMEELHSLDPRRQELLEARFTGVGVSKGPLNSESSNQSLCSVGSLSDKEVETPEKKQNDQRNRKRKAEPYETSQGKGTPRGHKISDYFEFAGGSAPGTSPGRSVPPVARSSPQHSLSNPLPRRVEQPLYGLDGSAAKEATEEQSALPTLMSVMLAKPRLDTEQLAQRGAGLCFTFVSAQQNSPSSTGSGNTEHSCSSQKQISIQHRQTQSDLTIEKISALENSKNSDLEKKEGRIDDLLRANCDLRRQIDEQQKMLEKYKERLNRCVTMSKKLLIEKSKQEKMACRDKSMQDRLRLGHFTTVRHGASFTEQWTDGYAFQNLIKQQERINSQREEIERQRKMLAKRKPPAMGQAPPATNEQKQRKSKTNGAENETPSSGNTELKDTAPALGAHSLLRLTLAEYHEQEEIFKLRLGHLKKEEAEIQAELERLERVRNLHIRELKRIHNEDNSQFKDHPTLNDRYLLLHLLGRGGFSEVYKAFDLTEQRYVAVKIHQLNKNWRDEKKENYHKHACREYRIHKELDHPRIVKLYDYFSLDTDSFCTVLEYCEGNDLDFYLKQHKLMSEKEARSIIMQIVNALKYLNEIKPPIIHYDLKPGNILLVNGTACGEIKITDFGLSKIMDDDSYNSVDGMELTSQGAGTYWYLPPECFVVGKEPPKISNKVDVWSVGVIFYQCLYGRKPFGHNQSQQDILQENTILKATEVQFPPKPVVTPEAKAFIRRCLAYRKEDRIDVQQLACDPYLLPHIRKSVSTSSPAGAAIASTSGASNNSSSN
Ephrin type-A receptor 6 (Homo sapiens), sequence (Q9UF33 whole entry, canonical isoform): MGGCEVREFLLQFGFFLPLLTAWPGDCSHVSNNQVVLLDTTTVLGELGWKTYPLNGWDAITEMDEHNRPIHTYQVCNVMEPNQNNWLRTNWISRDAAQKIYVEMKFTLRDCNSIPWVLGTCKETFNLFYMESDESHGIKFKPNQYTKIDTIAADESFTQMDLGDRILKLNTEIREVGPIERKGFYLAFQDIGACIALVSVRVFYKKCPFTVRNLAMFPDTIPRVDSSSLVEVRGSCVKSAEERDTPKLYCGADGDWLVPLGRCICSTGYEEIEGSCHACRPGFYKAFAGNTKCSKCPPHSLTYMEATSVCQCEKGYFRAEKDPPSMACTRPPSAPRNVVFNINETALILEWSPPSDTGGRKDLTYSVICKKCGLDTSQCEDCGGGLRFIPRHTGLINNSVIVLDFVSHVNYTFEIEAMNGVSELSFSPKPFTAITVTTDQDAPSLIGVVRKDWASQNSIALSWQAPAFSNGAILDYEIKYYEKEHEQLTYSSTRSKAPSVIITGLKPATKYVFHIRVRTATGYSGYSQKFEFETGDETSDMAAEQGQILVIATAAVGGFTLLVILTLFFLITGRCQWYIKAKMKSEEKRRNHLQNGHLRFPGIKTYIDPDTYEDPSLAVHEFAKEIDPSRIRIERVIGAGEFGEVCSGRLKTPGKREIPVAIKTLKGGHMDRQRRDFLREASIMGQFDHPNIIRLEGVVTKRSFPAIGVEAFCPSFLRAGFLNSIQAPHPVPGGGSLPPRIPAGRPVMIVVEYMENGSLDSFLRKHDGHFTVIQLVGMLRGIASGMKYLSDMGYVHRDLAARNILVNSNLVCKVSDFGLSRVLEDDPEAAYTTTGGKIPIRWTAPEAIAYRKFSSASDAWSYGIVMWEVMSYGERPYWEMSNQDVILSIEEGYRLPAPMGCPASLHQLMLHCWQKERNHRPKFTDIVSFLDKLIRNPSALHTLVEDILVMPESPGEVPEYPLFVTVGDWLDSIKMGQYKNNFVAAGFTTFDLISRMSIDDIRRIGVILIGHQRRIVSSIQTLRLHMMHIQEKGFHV
[Pyruvate dehydrogenase (acetyl-transferring)] kinase isozyme 4, mitochondrial (Homo sapiens), sequence (Q16654 whole entry, looked up): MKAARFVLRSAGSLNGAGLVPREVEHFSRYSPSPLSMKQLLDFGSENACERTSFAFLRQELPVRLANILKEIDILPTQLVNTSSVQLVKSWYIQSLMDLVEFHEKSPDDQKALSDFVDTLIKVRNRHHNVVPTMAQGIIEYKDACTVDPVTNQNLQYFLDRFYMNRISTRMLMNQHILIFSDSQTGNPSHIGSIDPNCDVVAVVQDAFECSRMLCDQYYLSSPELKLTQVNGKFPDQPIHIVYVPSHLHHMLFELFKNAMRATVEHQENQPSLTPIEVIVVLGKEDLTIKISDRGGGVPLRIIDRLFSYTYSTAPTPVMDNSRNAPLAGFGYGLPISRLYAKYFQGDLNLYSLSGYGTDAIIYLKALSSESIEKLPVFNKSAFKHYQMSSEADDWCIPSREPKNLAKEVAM
Serine/threonine-protein kinase pim-2 (Homo sapiens), sequence (Q9P1W9 whole entry, looked up): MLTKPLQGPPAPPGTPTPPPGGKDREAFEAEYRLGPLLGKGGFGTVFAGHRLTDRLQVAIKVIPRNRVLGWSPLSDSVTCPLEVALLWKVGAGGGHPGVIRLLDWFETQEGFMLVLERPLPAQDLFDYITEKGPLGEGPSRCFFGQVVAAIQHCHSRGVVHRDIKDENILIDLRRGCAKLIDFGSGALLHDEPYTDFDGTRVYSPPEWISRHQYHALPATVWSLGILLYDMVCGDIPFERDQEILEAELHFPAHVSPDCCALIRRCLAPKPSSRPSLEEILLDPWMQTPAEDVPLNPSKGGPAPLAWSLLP
Casein kinase I isoform alpha-like (Homo sapiens), sequence (Q8N752 whole entry, canonical isoform): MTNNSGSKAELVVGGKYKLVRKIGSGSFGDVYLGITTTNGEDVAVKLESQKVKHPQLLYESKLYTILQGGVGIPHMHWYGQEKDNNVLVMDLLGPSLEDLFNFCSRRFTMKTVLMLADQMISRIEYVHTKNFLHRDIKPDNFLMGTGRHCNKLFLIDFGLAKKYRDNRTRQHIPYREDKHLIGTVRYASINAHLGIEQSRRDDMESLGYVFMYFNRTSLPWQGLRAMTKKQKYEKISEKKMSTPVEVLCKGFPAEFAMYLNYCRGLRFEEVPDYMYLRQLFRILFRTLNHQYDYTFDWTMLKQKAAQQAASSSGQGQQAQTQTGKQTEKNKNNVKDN

COc1ccc(N2C(=O)COc3ccc(-c4cnc(OC)c(NS(=O)(=O)c5ccc(F)cc5)c4)cc32)cc1
inhibition [1]: 0.23%
inhibition [2]: 4.9%
inhibition [3]: -1.84%
inhibition [4]: 7.47%
inhibition [5]: -9.84%
inhibition [6]: 17.7%
AUC(0-inf) [7]: 4750 ng·h/mL
inhibition [8]: 5.1%
inhibition [9]: -9.69%
inhibition [10]: 8.65%
inhibition [11]: -0.5%
TGI (HeLa): Dose-dependent effect
inhibition [12]: 9.62%
IC50 [13]: 9.2 nM
inhibition [14]: 15.9%
inhibition [15]: 3.96%
inhibition [16]: 7.92%
inhibition [17]: -6.28%
inhibition [18]: -9.63%
inhibition [19]: 12.3%
inhibition [20]: 4.85%
inhibition [21]: 5.64%
inhibition [22]: 2.1%
inhibition [23]: -4.54%
inhibition [24]: 8.7%
inhibition [25]: 0.28%
inhibition [26]: -7.96%
inhibition [27]: 9.96%
Cmax [28]: 887 ng/mL
inhibition [29]: 6.04%
inhibition [30]: 1.74%
